In patent US12201618B2 (Biohaven Therapeutics Ltd., priority 2018, dated 2025):

What was measured:
[1] = taken with meals; cited from earlier work
[2] = tested on: patients diagnosed with Alzheimer's disease of mild-to-moderate severity; assay: T2 Protect AD Phase 2/3 trial: CDR-Sum of Boxes; format: in vivo, human; conditions: for CDR01-Sum of Boxes Week 48 Model Estimates LSMean (SE): Week 48, change from baseline; for CDR01-Sum of Boxes Week 48 Model Estimates LSMean (SE) Difference: Week 48, placebo vs troriluzole
Source text: The CDR-SOB (Hughes, Berg, Danziger, Coben, & Martin, 1982) is a validated composite rating of cognition and everyday functioning used in longitudinal AD research which incorporates both informant input and direct assessment of performance. It assesses through semi structured interview 3 cognitive domains including memory, orientation, and judgement/problem solving and 3 everyday functional domains including community affairs, home and hobbies and personal care. There are 5 levels of impairment from none CDR=0 to severe CDR=3. The individual domain scores are added to create a sum of the box scores.
(§1) The T2 Protect AD trial has been conducted, which is a Phase 2/3, randomized, double-blind, placebo-controlled study evaluating the efficacy and safety of troriluzole in patients diagnosed with Alzheimer's disease of mild-to-moderate severity (Mini-Mental State Examination [MMSE] scores of 14-24; mild: 20-24, moderate: 14-19).

[3] = tested on: patients diagnosed with Alzheimer's disease of mild-to-moderate severity; assay: T2 Protect AD Phase 2/3 trial: ADAS-Cog 11; format: in vivo, human; conditions: for ADAS-Cog Total Score Week 48 Model Estimates LSMean (SE): Week 48, change from baseline; for ADAS-Cog Total Score Week 48 Model Estimates LSMean (SE) Difference: Week 48, placebo vs troriluzole
Source text: (§2) The ADAS-Cog 11 evaluates memory (word recall, word recognition), reasoning (following commands), language (naming, comprehension), orientation, ideational praxis (placing a letter in an envelope) and constructional praxis (copying geometric designs). Ratings of spoken language, language comprehension, word finding difficulty, and ability to remember test instructions are also obtained. The test is scored in terms of errors, with higher scores reflecting poorer performance and greater impairment. Scores can range from 0 (best) to 70 (worse).
The primary efficacy endpoint is the within-participant change in ADAS-Cog 11 from baseline to week 48, compared between the treatment group and the placebo group.
as §2, with “11 (Rosen, Mohs, & Davis, 1984) is a structured scale that” for “11”
as §1

[4] = tested on: patients diagnosed with Alzheimer's disease of mild-to-moderate severity; assay: T2 Protect AD Phase 2/3 trial: neuropsychiatric inventory (NPI); format: in vivo, human; conditions: after 48 weeks
Source text: The NPI is a well-validated, reliable, multi-item instrument to assess psychopathology in AD dementia based on the results of an interview with the study partner (Cummings, 1997). The NPI evaluates both the frequency and severity of 10 neuropsychiatric features, including delusions, hallucinations, agitation/aggression, dysphoria, anxiety, euphoria, apathy, disinhibition, irritability and lability, and aberrant motor behavior, as well as evaluates sleep and appetite/eating disorders. Frequency assessments range from 1 (occasionally, less than once per week) to 4 (very frequently, once or more per day or continuously). Severity assessments range from 1 (mild) to 3 (severe). The score for each subscale is the product of severity and frequency and the total score is the sum of all subscales.
as §1

[5] = tested on: patients diagnosed with Alzheimer's disease of mild-to-moderate severity; assay: T2 Protect AD Phase 2/3 trial: volumetric hippocampal MRI; format: in vivo, human; conditions: for Hippocampal Volume Change Week 48 Model Estimates LSMean (SE) Difference: Week 48, placebo vs troriluzole
Source text: vMRI allows the in vivo assessment of brain structure volume and provides a measure of atrophy rate. […] Atrophy of the medial temporal lobe, including hippocampus and entorhinal cortex, has long been described in vMRI studies of AD. Hippocampal volume derived from MRI correlates with histological hippocampal volume and degree of neuronal loss and AD pathology, and entorhinal cortical thickness change appears to be an early and sensitive indicator of neurodegeneration associated with AD (Holland et al., 2009; Jack et al., 2004).
Participants will undergo vMRI scans of the brain at screening, week 24 and week 48 in order to assess for changes in brain volumes that may be associated with clinical change due to treatment with BHV-4157.
Volumetric MRI scans will use the same imaging protocol, which will include a localizer scan, a 3D T1weighted sagittal acquisition (MPRAGE or IR-SPGR), a T2-weighted FLAIR axial acquisition, a T2* gradient recalled echo axial acquisition for magnetic susceptibility, and a diffusion weighted axial acquisition to assess for restricted diffusion.
Images will be checked for image quality and adherence to scanning protocols. 3D T1-weighted datasets passing quality checks will be corrected for spatial distortion and for intensity variation. Screening and follow-up datasets for each participant will be spatially registered to one another using rigid-body registration followed by nonlinear registration and neuroanatomic parcellation to quantify whole-brain and subregional volumetric change on a patient-by patient basis.
Whole brain volume (WBV, excluding cerebellum), bilateral ventricular volume and bilateral hippocampal volume will be measured. Quantitative anatomical regional change (Quarc) will be used as the computational MR image processing application. Detail for the statistical computations is given in the Statistical Analytical Plan (SAP).
as §1

[6] = mild-to-moderate AD, all patients
[7] = mild-to-moderate AD, all patients, Week 48

SMILES: Nc1nc2ccc(OC(F)(F)F)cc2s1 [Riluzole, 6-(trifluoromethoxy)benzothiazol-2-amine]
- food effect on exposure [1]: reduced exposure when taken with meals

SMILES: CN(CC(=O)Nc1nc2ccc(OC(F)(F)F)cc2s1)C(=O)CNC(=O)CN [Troriluzole]
- CDR01-Sum of Boxes Week 48 Analysis Value Mean (SD) ([2]; Mild AD Patients Only): 7.1 (2.79)
- CDR01-Sum of Boxes Week 48 Analysis Value Median ([2]; Mild AD Patients Only): 6.5
- CDR01-Sum of Boxes Week 48 Change from Baseline Mean (SD) ([2]; Mild AD Patients Only): 1.4 (2.06)
- CDR01-Sum of Boxes Week 48 Change from Baseline Median ([2]; Mild AD Patients Only): 1.0
- CDR01-Sum of Boxes Week 48 Model Estimates LSMean (SE) ([2]; Mild AD Patients Only): 1.7 (0.29)
- CDR01-Sum of Boxes Week 48 Model Estimates LSMean (SE) Difference ([2]; Mild AD Patients Only): −0.3 (0.40)
- CDR01-Sum of Boxes Week 48 Analysis Value Mean (SD) [2, 6]: 8.3 (3.24)
- CDR01-Sum of Boxes Week 48 Analysis Value Median [2, 6]: 8.0
- CDR01-Sum of Boxes Week 48 Change from Baseline Mean (SD) [2, 6]: 1.9 (2.37)
- CDR01-Sum of Boxes Week 48 Change from Baseline Median [2, 6]: 2.0
- CDR01-Sum of Boxes Week 48 Model Estimates LSMean (SE) [2, 6]: 2.1 (0.21)
- CDR01-Sum of Boxes Week 48 Model Estimates LSMean (SE) Difference [2, 6]: −0.2 (0.28)
- ADAS-Cog Total Score Week 48 Analysis Value Mean (SD) ([3]; Mild AD Patients Only, Week 48): 26.2 (8.22)
- ADAS-Cog Total Score Week 48 Analysis Value Median ([3]; Mild AD Patients Only, Week 48): 26.0
- ADAS-Cog Total Score Week 48 Change from Baseline Mean (SD) ([3]; Mild AD Patients Only, Week 48): 3.9 (5.90)
- ADAS-Cog Total Score Week 48 Change from Baseline Median ([3]; Mild AD Patients Only, Week 48): 4.0
- ADAS-Cog Total Score Week 48 Model Estimates LSMean (SE) ([3]; Mild AD Patients Only): 4.2 (0.76)
- ADAS-Cog Total Score Week 48 Model Estimates LSMean (SE) Difference ([3]; Mild AD Patients Only): 0.7 (1.02)
- ADAS-Cog11 score LS mean change difference versus placebo ([3]; mild AD, after 48 weeks, 95% CI: −1.4, 2.7, p-value=0.5233): 0.7
- LS mean change from baseline on the ADAS-Cog11 score ([3]; mild AD, after 48 weeks, n=65): 4.2 points
- ADAS-Cog Total Score Week 48 Analysis Value Median [3, 7]: 30.0
- ADAS-Cog Total Score Week 48 Change from Baseline Mean (SD) [3, 7]: 5.8 (7.40)
- ADAS-Cog Total Score Week 48 Change from Baseline Median [3, 7]: 6.0
- ADAS-Cog Total Score Week 48 Analysis Value Mean (SD) ([3]; mild-to-moderate AD, all patients, Week 48, 280 mg once daily): 31.5 (10.82)
- ADAS-Cog Total Score Week 48 Model Estimates LSMean (SE) [3, 6]: 6.7 (0.70)
- ADAS-Cog Total Score Week 48 Model Estimates LSMean (SE) Difference [3, 6]: 0.0 (0.93)
- NPI score LS mean change difference versus placebo ([4]; mild AD, 95% CI: −5.99, 1.78, p-value=0.286): −2.1
- LS mean change from baseline on the NPI score ([4]; mild AD, n=62): 2.1 points
- NPI score LS mean change difference versus placebo ([4]; mild-to-moderate AD, 95% CI: −4.08, 1.10, p-value=0.258): −1.5
- LS mean change from baseline on the NPI score ([4]; mild-to-moderate AD, n=120): 2.3 points
- Hippocampal Volume Change Week 48 Analysis Value Mean (SD) ([5]; Mild AD Patients Only): −1.1 (1.61)
- Hippocampal Volume Change Week 48 Analysis Value Median ([5]; Mild AD Patients Only): −0.9
- Hippocampal Volume Change Week 48 Model Estimates LSMean (SE) ([5]; Mild AD Patients Only): −1.1 (0.27)
- Hippocampal Volume Change Week 48 Model Estimates LSMean (SE) Difference ([5]; Mild AD Patients Only): −0.5 (0.38)
- hippocampal volume LS mean percent deformation change difference versus placebo ([5]; mild AD, after 48 weeks, 95% CI: −1.2, 0.3, p-value=0.2240): −0.5%
- LS mean percent deformation change from baseline hippocampal volume ([5]; mild AD, after 48 weeks, n=48): −1.1%
- Hippocampal Volume Change Week 48 Analysis Value Mean (SD) [5, 6]: −1.1 (1.50)
- Hippocampal Volume Change Week 48 Analysis Value Median [5, 6]: −0.9
- Hippocampal Volume Change Week 48 Model Estimates LSMean (SE) [5, 6]: −1.1 (0.18)
- Hippocampal Volume Change Week 48 Model Estimates LSMean (SE) Difference [5, 6]: 0.0 (0.26)
